Measurements published in the CheMixHub viscosity set.
“And” between values parts separate entries of the source, which are not always exact repeats. Equal entries are not always repeated.

Columns and labels:
[1] = xn = mol fraction of the nth substance listed

CC(=O)O.CC(=O)[O-].CC[NH+](CC)CCO
101 kPa
Conditions | viscosity [mPa·s]
293.15 K | 110.4
298.15 K | 80.19
303.15 K | 59.63
308.15 K | 45.32
313.15 K | 35.12
318.15 K | 27.71
323.15 K | 22.22

Cc1ccccc1N
viscosity
Conditions | 298.15 K | 303.15 K | 308.15 K | 313.15 K | 318.15 K
100 kPa | 3.718 mPa·s | 3.258 mPa·s and 3.258 mPa·s and 3.26 mPa·s | 2.824 mPa·s and 2.824 mPa·s and 2.82 mPa·s | 2.487 mPa·s and 2.487 mPa·s and 2.49 mPa·s | 2.153 mPa·s and 2.153 mPa·s and 2.15 mPa·s
101 kPa | 3.645 mPa·s | 3.1 mPa·s | – | – | –

O=S1(=O)CCCC1
Conditions | viscosity
298.15 K, 101.3 kPa | 10.28 mPa·s
308.15 K, 100 kPa | 8.795 mPa·s
308.15 K, 101.3 kPa | 8.258 mPa·s
318.15 K, 101 kPa | 7.18 mPa·s and 7.17 mPa·s and 6.912 mPa·s
318.15 K, 101.3 kPa | 6.256 mPa·s
323.15 K, 101.33 kPa | 6.346 mPa·s

OC1COCOC1
101 kPa
Conditions | viscosity
298.15 K | 13.11 mPa·s
308.15 K | 8.963 mPa·s
318.15 K | 6.508 mPa·s and 6.58 mPa·s

C1CC[NH2+]C1.CCCCCCCC(=O)[O-]
101 kPa
Conditions | viscosity [mPa·s]
293.15 K | 72.2
298.15 K | 62.71
303.15 K | 50.21
308.15 K | 42.89
313.15 K | 35.27

O=S(=O)(Cl)Cl
Conditions | viscosity [mPa·s]
298.15 K, 101 kPa | 0.685

CCC[n+]1ccn(C)c1C.O=S(=O)([N-]S(=O)(=O)C(F)(F)F)C(F)(F)F
Conditions | viscosity [mPa·s]
298.15 K, 101 kPa | 85.6

c1ccc2sccc2c1
101 kPa
Conditions | viscosity [mPa·s]
308.15 K | 2.94
318.15 K | 2.06

Nc1ccccc1Cl
viscosity
Conditions | 298.15 K | 303.15 K | 308.15 K | 313.15 K | 318.15 K
100 kPa | 4.209 mPa·s | 3.825 mPa·s | 3.413 mPa·s | 3.06 mPa·s | 2.762 mPa·s
101 kPa | 2.973 mPa·s and 2.974 mPa·s | – | – | – | –

CCC(C)O (stereo not drawn)
viscosity
Conditions | 293.15 K | 298.15 K | 303 K | 303.15 K | 308.15 K | 318.15 K | 323.15 K
100 kPa | 4.036 mPa·s | – | – | – | – | – | 1.626 mPa·s
101 kPa | – | – | – | 2.742 mPa·s and 2.27 mPa·s and 2.741 mPa·s | 2 mPa·s and 2.179 mPa·s | 1.58 mPa·s and 1.566 mPa·s | 1.41 mPa·s
101.3 kPa | – | – | – | 3.177 mPa·s | 2.582 mPa·s | – | –
101.33 kPa | 3.647 mPa·s | 2.925 mPa·s and 2.857 mPa·s | 2.195 mPa·s | 2.417 mPa·s and 2.741 mPa·s | 2.034 mPa·s and 2.011 mPa·s | 1.62 mPa·s | –

CCCCOCCOCCO
viscosity
Conditions | 298.15 K | 303.15 K | 308.15 K | 318.15 K
100 kPa | 5.11 mPa·s | 4.345 mPa·s | 3.872 mPa·s | –
101 kPa | 4.877 mPa·s | – | 3.582 mPa·s | 2.943 mPa·s
101.33 kPa | 5.232 mPa·s and 5.232 mPa·s | – | – | –

Cc1cccc(C)c1 + CCCCO
[1], 308.15 K, 101 kPa
Conditions | viscosity [mPa·s]
x2 = 0.0525 | 0.471
x2 = 0.1036 | 0.54
x2 = 0.19 | 0.553
x2 = 0.307 | 0.583
x2 = 0.4171 | 0.631
x2 = 0.5209 | 0.733
x2 = 0.619 | 0.815
x2 = 0.7117 | 0.947
x2 = 0.7995 | 1.131
x2 = 0.8828 | 1.323
x2 = 0.9619 | 1.556

Cc1cccc(C)c1 + CCOC(C)=O
viscosity [mPa·s], [1], 101 kPa
Conditions | 298.15 K | 308.15 K
x2 = 0.048 | 0.568 | 0.515
x2 = 0.1498 | 0.541 | 0.492
x2 = 0.2498 | 0.518 | 0.472
x2 = 0.3493 | 0.498 | 0.454
x2 = 0.4469 | 0.481 | 0.439
x2 = 0.4972 | 0.473 | 0.432
x2 = 0.5494 | 0.466 | 0.425
x2 = 0.6495 | 0.454 | 0.414
x2 = 0.7511 | 0.444 | 0.404
x2 = 0.8509 | 0.436 | 0.396
x2 = 0.9461 | 0.43 | 0.39

Cc1ccc(O)cc1 + Oc1ccccc1
[1], 298.15 K, 101 kPa
Conditions | viscosity [mPa·s]
x2 = 0.1598 | 13.27
x2 = 0.3191 | 12.18
x2 = 0.3851 | 11.75
x2 = 0.5218 | 10.99
x2 = 0.6385 | 10.42
x2 = 0.7587 | 9.835
x2 = 0.8783 | 9.463

NCCCO + CCCC[N+](CCCC)(CCCC)CCCC.[Br-]
viscosity, [1], 101.33 kPa
Conditions | 293.15 K | 298.15 K | 303.15 K | 308.15 K | 313.15 K | 318.15 K | 323.15 K
x1 = 0.8 | 113.9 mPa·s | 84.69 mPa·s | 63.71 mPa·s | 49.65 mPa·s | 38.79 mPa·s | 30.76 mPa·s | 24.94 mPa·s
x1 = 0.9 | 79.29 mPa·s and 65.55 mPa·s | 60.03 mPa·s and 50.16 mPa·s | 46.01 mPa·s and 38.6 mPa·s | 35.84 mPa·s and 29.98 mPa·s | 28.31 mPa·s and 23.97 mPa·s | 22.73 mPa·s and 19.27 mPa·s | 18.62 mPa·s and 15.76 mPa·s

O=S1(=O)CCCC1 + C1CCOC1
viscosity [mPa·s], [1], 101 kPa
Conditions | 303.15 K | 308.15 K | 313.15 K | 318.15 K | 323.15 K
x2 = 0.268 | 3.74 | 2.9 | 3.41 | 2.93 | 2.68
x2 = 0.541 | 1.53 | 1.46 | 1.34 | 1.26 | 1.18
x2 = 0.772 | 0.77 | 0.74 | 0.72 | 0.7 | 0.68

O=S1(=O)CCCC1 + C1COCCO1
viscosity [mPa·s], [1], 101 kPa
Conditions | x1 = 0.0809 | x1 = 0.1742 | x1 = 0.2786 | x1 = 0.3855 | x1 = 0.4739 | x1 = 0.5744 | x1 = 0.6247 | x1 = 0.7169 | x1 = 0.8462 | x1 = 0.9062
303.15 K | 1.276 | 1.517 | 1.854 | 2.293 | 2.756 | 3.428 | 3.841 | 4.786 | 6.656 | 7.852
313.15 K | 1.086 | 1.284 | 1.558 | 1.912 | 2.28 | 2.809 | 3.13 | 3.861 | 5.275 | 6.164
323.15 K | 0.9369 | 1.104 | 1.332 | 1.622 | 1.922 | 2.348 | 2.605 | 3.182 | 4.278 | 4.942
